Among the data in patent US8138189B2, “Substituted benzene compounds as modulators of the glucocorticoid receptor” (Hoffman-La Roche Inc., priority 2009, dated 2012) are Ki values, retold here.

In this assay the target is T1, full length human recombinant glucocorticoid receptor (Homo sapiens, UniProt P04150).
T1 construct: partially purified full length human recombinant glucocorticoid receptor; purchased Panvera/Invitrogen PV4302
T1 sequence (P04150 1-777): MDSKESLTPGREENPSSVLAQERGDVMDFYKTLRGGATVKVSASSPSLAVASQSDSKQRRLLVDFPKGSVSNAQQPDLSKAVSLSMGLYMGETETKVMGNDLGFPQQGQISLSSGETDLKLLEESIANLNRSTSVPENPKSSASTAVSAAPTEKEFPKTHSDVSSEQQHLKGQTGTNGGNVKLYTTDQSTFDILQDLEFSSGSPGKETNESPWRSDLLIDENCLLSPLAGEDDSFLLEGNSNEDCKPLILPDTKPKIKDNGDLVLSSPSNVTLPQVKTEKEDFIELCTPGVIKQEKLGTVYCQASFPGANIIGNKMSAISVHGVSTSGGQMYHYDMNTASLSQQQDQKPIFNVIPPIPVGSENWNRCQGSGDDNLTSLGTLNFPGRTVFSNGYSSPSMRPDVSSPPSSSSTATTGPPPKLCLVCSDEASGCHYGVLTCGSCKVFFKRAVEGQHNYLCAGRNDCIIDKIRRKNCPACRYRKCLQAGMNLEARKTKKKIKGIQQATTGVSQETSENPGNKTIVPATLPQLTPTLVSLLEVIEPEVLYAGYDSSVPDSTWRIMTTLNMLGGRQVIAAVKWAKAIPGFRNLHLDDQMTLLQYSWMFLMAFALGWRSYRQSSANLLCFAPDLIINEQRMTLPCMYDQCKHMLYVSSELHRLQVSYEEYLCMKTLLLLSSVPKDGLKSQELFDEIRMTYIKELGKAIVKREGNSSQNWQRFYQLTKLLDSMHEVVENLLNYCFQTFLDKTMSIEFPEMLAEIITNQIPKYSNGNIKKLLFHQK
Put plainly: Glucocorticoid Receptor Binding Assay (fluorescence polarization competitor assay, Fluormone GS Far Red tracer). The essentials:
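Partially purified full-length recombinant human GR with a stabilizing coactivator peptide was incubated with Fluormone GS Far Red tracer and serially diluted compound for 3 h at 22 °C in the dark, pH 7.4. Fluorescence polarization was read at 610-660 nm. IC50 came from sigmoidal fitting, and Ki from Cheng-Prusoff.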
On the technique in general: Fluorescence polarisation rises when a labelled molecule tumbles more slowly, as on binding a larger partner.

pKi: −log10 of the molar value.

One may read the pKi as the negative decadic logarithm of the Ki, by convention in mol/L. As for `CCOC(=O)c1ccc(COc2ccc([C@@H](C)[C@@](O)(c3ccnc(Cl)c3)C(F)(F)F)c(Cl)c2)cc1` (stereo in doubt) [Example 19, 4-{3-Chloro-4-[2-(2-chloro-pyridin-4-yl)-3,3,3-trifluoro-2-hydroxy-1-methyl-propyl]-phenoxymethyl}-benzoic acid ethyl ester], the pKi was 7.34.
The figure for `C[C@H](c1ccc(OCc2ccc(C(=O)O)cc2)cc1Cl)[C@@](O)(c1ccnc(Cl)c1)C(F)(F)F` (stereo in doubt) [Example 20, 4-{3-Chloro-4-[2-(2-chloro-pyridin-4-yl)-3,3,3-trifluoro-2-hydroxy-1-methyl-propyl]-phenoxymethyl}-benzoic acid] is 8.54; for `COc1cc(C(=O)O)ccc1COc1ccc([C@@H](C)[C@@](O)(c2ccnc(Cl)c2)C(F)(F)F)c(Cl)c1` (stereo in doubt) [Example 22, 4-{3-Chloro-4-[2-(2-chloro-pyridin-4-yl)-3,3,3-trifluoro-2-hydroxy-1-methyl-propyl]-phenoxymethyl}-3-methoxy-benzoic acid] it is 7.97; for `C[C@H](c1ccc(OCc2ccc(CC(=O)O)cc2)cc1Cl)[C@@](O)(c1ccnc(Cl)c1)C(F)(F)F` (stereo in doubt) [Example 24, (4-{3-Chloro-4-[2-(2-chloro-pyridin-4-yl)-3,3,3-trifluoro-2-hydroxy-1-methyl-propyl]-phenoxymethyl}-phenyl)-acetic acid] it is 8.33.
For `C[C@H](c1ccc(OS(=O)(=O)c2ccc(C(=O)O)cc2)cc1Cl)[C@@](O)(c1ccnc(Cl)c1)C(F)(F)F` (stereo in doubt) [Example 25, 4-{3-Chloro-4-[2-(2-chloro-pyridin-4-yl)-3,3,3-trifluoro-2-hydroxy-1-methyl-propyl]-phenoxysulfonyl}-benzoic acid] the value was 7.94; for `C[C@H](c1ccc(C(=O)Nc2ccc(C(=O)O)cc2)cc1Cl)[C@@](O)(c1ccnc(Cl)c1)C(F)(F)F` (stereo in doubt) [Example 26, 4-{3-Chloro-4-[2-(2-chloro-pyridin-4-yl)-3,3,3-trifluoro-2-hydroxy-1-methyl-propyl]-benzoylamino}-benzoic acid], 6.70.
The figure for `COC(=O)c1ccnc(NC(=O)c2ccc([C@@H](C)[C@@](O)(c3ccnc(Cl)c3)C(F)(F)F)c(Cl)c2)c1` (stereo in doubt) [Example 27, 2-{3-Chloro-4-[-2-(2-chloro-pyridin-4-yl)-3,3,3-trifluoro-2-hydroxy-1-methyl-propyl]-benzoylamino}-isonicotinic acid methyl ester] is 7.02; for `C[C@H](c1ccc(C(=O)Nc2cc(C(=O)O)ccn2)cc1Cl)[C@@](O)(c1ccnc(Cl)c1)C(F)(F)F` (stereo in doubt) [Example 29, 2-{3-Chloro-4-[2-(2-chloro-pyridin-4-yl)-3,3,3-trifluoro-2-hydroxy-1-methyl-propyl]-benzoylamino}-isonicotinic acid] it is 6.77.
In the case of `CCOC(=O)C1CCN(C(=O)c2ccc([C@@H](C)[C@@](O)(c3ccnc(Cl)c3)C(F)(F)F)c(Cl)c2)CC1` (stereo in doubt) [Example 32, 1-{3-Chloro-4-[2-(2-chloro-pyridin-4-yl)-3,3,3-trifluoro-2-hydroxy-1-methyl-propyl]-benzoyl}-piperidine-4-carboxylic acid ethyl ester], the pKi is 6.61.
For `C[C@H](c1ccc(C(=O)Nc2ccn(CC(=O)O)n2)cc1Cl)[C@@](O)(c1ccnc(Cl)c1)C(F)(F)F` (stereo in doubt) [Example 35, (3-{3-Chloro-4-[2-(2-chloro-pyridin-4-yl)-3,3,3-trifluoro-2-hydroxy-1-methyl-propyl]-benzoylamino}-pyrazol-1-yl)-acetic acid] the value was 6.47; for `C[C@H](c1ccc(C(=O)NCc2ccc(C(=O)O)cc2)cc1Cl)[C@@](O)(c1ccnc(Cl)c1)C(F)(F)F` (stereo in doubt) [Example 37, 4-({3-Chloro-4-[2-(2-chloro-pyridin-4-yl)-3,3,3-trifluoro-2-hydroxy-1-methyl-propyl]-benzoylamino}-methyl)-benzoic acid], 6.85.
As to `C[C@H](c1ccc(C(=O)Nc2ccc(CC(=O)O)cc2)cc1Cl)[C@@](O)(c1ccnc(Cl)c1)C(F)(F)F` (stereo in doubt) [Example 39, (4-{3-Chloro-4-[2-(2-chloro-pyridin-4-yl)-3,3,3-trifluoro-2-hydroxy-1-methyl-propyl]-benzoylamino}-phenyl)-acetic acid], the pKi was 6.56.
`C[C@H](c1ccc(C(=O)Nc2cccc(C(=O)O)c2)cc1Cl)[C@@](O)(c1ccnc(Cl)c1)C(F)(F)F` (stereo in doubt) [Example 41, 3-{3-Chloro-4-[2-(2-chloro-pyridin-4-yl)-3,3,3-trifluoro-2-hydroxy-1-methyl-propyl]-benzoylamino}-benzoic acid]: the pKi is 6.54.
For `CCOC(=O)Cc1ccc(CNC(=O)c2ccc([C@@H](C)[C@@](O)(c3ccnc(Cl)c3)C(F)(F)F)c(Cl)c2)cc1` (stereo in doubt) [Example 42, [4-({3-Chloro-4-[2-(2-chloro-pyridin-4-yl)-3,3,3-trifluoro-2-hydroxy-1-methyl-propyl]-benzoylamino}-methyl)-phenyl]-acetic acid ethyl ester] the value was 6.55; for `C[C@H](c1ccc(C(=O)NCc2ccc(CC(=O)O)cc2)cc1Cl)[C@@](O)(c1ccnc(Cl)c1)C(F)(F)F` (stereo in doubt) [Example 43, [4-({3-Chloro-4-[2-(2-chloro-pyridin-4-yl)-3,3,3-trifluoro-2-hydroxy-1-methyl-propyl]-benzoylamino}-methyl)-phenyl]-acetic acid], 6.81.
Turning to `C[C@H](c1ccc(-c2nc(C(=O)O)no2)cc1Cl)[C@@](O)(c1ccnc(Cl)c1)C(F)(F)F` (stereo in doubt) [Example 48, 5-{3-Chloro-4-[2-(2-chloro-pyridin-4-yl)-3,3,3-trifluoro-2-hydroxy-1-methyl-propyl]-phenyl}-[1,2,4]oxadiazole-3-carboxylic acid], the negative-log Ki (pKi) is 6.84.
Regarding `COC(=O)c1ccc(-c2ccc([C@@H](C)[C@@](O)(c3ccnc(Cl)c3)C(F)(F)F)c(Cl)c2)cc1` (stereo in doubt) [Example 49, 3′-Chloro-4′-[2-(2-chloro-pyridin-4-yl)-3,3,3-trifluoro-2-hydroxy-1-methyl-propyl]-biphenyl-4-carboxylic acid methyl ester], the pKi was 7.73.
For `CCOC(=O)c1cccc(-c2ccc([C@@H](C)[C@@](O)(c3ccnc(Cl)c3)C(F)(F)F)c(Cl)c2)c1` (stereo in doubt) [Example 51, 3′-Chloro-4′-[2-(2-chloro-pyridin-4-yl)-3,3,3-trifluoro-2-hydroxy-1-methyl-propyl]-biphenyl-3-carboxylic acid ethyl ester] the value was 6.82; for `C[C@H](c1ccc(-c2ccc(C(=O)O)c(F)c2)cc1Cl)[C@@](O)(c1ccnc(Cl)c1)C(F)(F)F` (stereo in doubt) [Example 54, 3′-Chloro-4′-[2-(2-chloro-pyridin-4-yl)-3,3,3-trifluoro-2-hydroxy-1-methyl-propyl]-3-fluoro-biphenyl-4-carboxylic acid], 7.53; for `C[C@H](c1ccc(-c2ccc(CCC(=O)O)cc2)cc1Cl)[C@@](O)(c1ccnc(Cl)c1)C(F)(F)F` (stereo in doubt) [Example 55, 3-{3′-Chloro-4′-[2-(2-chloro-pyridin-4-yl)-3,3,3-trifluoro-2-hydroxy-1-methyl-propyl]-biphenyl-4-yl}-propionic acid], 7.53.
For `CCOC(=O)c1cccc(-c2ccc([C@@H](C)[C@@](O)(c3ccnc(-c4cccc(C(=O)OCC)c4)c3)C(F)(F)F)c(Cl)c2)c1` (stereo in doubt) [Example 56, 3′-Chloro-4′-{2-[2-(3-ethoxycarbonyl-phenyl)-pyridin-4-yl]-3,3,3-trifluoro-2-hydroxy-1-methyl-propyl}-biphenyl-3-carboxylic acid ethyl ester] the value was 6.68; for `C[C@H](c1ccc(-c2ccc(C(=O)O)cc2)cc1Cl)[C@@](O)(c1ccnc(-c2ccc(C(=O)O)cc2)c1)C(F)(F)F` (stereo in doubt) [Example 57, 4′-{2-[2-(4-Carboxy-phenyl)-pyridin-4-yl]-3,3,3-trifluoro-2-hydroxy-1-methyl-propyl}-3′-chloro-biphenyl-4-carboxylic acid], 6.62.
The figure for `COc1cc(C(=O)O)ccc1Oc1ccc([C@@H](C)[C@@](O)(c2ccnc(Cl)c2)C(F)(F)F)c(Cl)c1` (stereo in doubt) [Example 92, 4-{3-Chloro-4-[2-(2-chloro-pyridin-4-yl)-3,3,3-trifluoro-2-hydroxy-1-methyl-propyl]-phenoxy}-3-methoxy-benzoic acid] is 8.24.
